Key:
Assay in all cases: relative viability (nuclei count vs DMSO), 5 days (fraction); higher = more cells survive
QS11 + Palbociclib = compound: C1CC2=C(C1)C=C(C=C2)OC3=NC(=C4C(=N3)N(C=N4)CC5=CC=C(C=C5)C6=CC=CC=C6)N[C@@H](CC7=CC=CC=C7)CO [QS11] + CC(=O)c1c(C)c2cnc(Nc3ccc(N4CCNCC4)cn3)nc2n(C2CCCC2)c1=O [Palbociclib] (partner 0.5 µM)
Method in brief: (§1)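 Relative viability divides the nuclei count in treated wells by that in vehicle wells. Lung cancer cell lines were seeded in 1536-well plates, dosed by pin tool the next day, and fixed and stained after 5 days in one step with final 0.05% Triton X-100, 1% formaldehyde and 1 ug/ml Hoechst. Dosing was a single drug or a fixed anchor-drug dose plus five library-drug doses (not always all listed) in √10 steps, and values are medians of duplicate plates imaged at 4×.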

QS11 + Phenformin = compound: C1CC2=C(C1)C=C(C=C2)OC3=NC(=C4C(=N3)N(C=N4)CC5=CC=C(C=C5)C6=CC=CC=C6)N[C@@H](CC7=CC=CC=C7)CO [QS11] + N=C(N)NC(=N)NCCc1ccccc1 [Phenformin] (partner 250 µM)
Method in brief: as §1

AZ628 + Crizotinib = compound: CC1=C(C=C(C=C1)NC(=O)C2=CC(=CC=C2)C(C)(C)C#N)NC3=CC4=C(C=C3)N=CN(C4=O)C [AZ628] + C[C@@H](Oc1cc(-c2cnn(C3CCNCC3)c2)cnc1N)c1c(Cl)ccc(F)c1Cl [Crizotinib] (partner 1 µM)
Method in brief: as §1

[1] = compound: C[As](C)SC[C@H](NC(=O)CC[C@H](N)C(=O)O)C(=O)NCC(=O)O [Darinaparsin] + CC(C)C[C@H](NC(=O)[C@H](Cc1ccccc1)NC(=O)c1cnccn1)B(O)O [Bortezomib] (partner 0.002 µM)
Method in brief: as §1

Cell Line	relative viability (QS11 + Palbociclib; first compound 0.08 µM)	relative viability (QS11 + Palbociclib; first compound 0.253 µM)	relative viability (QS11 + Palbociclib; first compound 0.8 µM)	relative viability (QS11 + Palbociclib; first compound 2.53 µM)	relative viability (QS11 + Palbociclib; first compound 8 µM)	relative viability (QS11 + Phenformin; first compound 0.08 µM)	relative viability (QS11 + Phenformin; first compound 0.253 µM)	relative viability (QS11 + Phenformin; first compound 0.8 µM)	relative viability (QS11 + Phenformin; first compound 2.53 µM)	relative viability (QS11 + Phenformin; first compound 8 µM)	relative viability (AZ628 + Crizotinib; first compound 0.08 µM)	relative viability (AZ628 + Crizotinib; first compound 0.253 µM)	relative viability (AZ628 + Crizotinib; first compound 0.8 µM)	relative viability (AZ628 + Crizotinib; first compound 2.53 µM)	relative viability (AZ628 + Crizotinib; first compound 8 µM)	relative viability ([1]; first compound 0.08 µM)	relative viability ([1]; first compound 0.8 µM)	relative viability ([1]; first compound 2.53 µM)	relative viability ([1]; first compound 8 µM)
HCC-15	0.765	0.808	0.579	0.701	0.542	0.541	0.519	0.445	0.44	0.5	0.81	0.793	0.767	0.77	0.446	1.25	1.06	0.863	1.28
HCC-44	1.07	0.998	0.732	0.901	0.866	0.208	0.206	0.25	0.158	0.157	0.801	0.857	0.961	0.912	0.721	1.04	0.861	0.801	1.04
HCC-78	0.462	0.531	0.464	0.457	0.358	0.788	0.722	0.725	0.871	0.798	0.404	0.403	0.38	0.413	0.4	0.464	0.59	0.482	0.55
HCC-366	0.433	0.454	–	0.162	0.0973	0.607	0.613	–	0.589	0.504	0.519	0.627	0.308	0.427	0.236	1.71	1.11	0.768	1.94
IA-LM	–	–	–	–	–	–	–	–	–	–	0.971	0.749	0.678	0.829	0.18	0.893	1.08	1.32	1.01
LK-2	0.723	0.826	0.777	0.507	0.705	0.243	0.76	0.524	0.426	0.411	0.192	0.197	0.244	0.203	0.224	–	–	–	–
NCI-H358	0.132	0.128	0.134	0.159	0.118	0.297	0.378	0.412	0.5	0.507	0.393	0.435	0.583	0.51	0.32	–	–	–	–
NCI-H522	0.766	0.841	0.987	1.15	1.19	0.689	0.656	0.621	0.705	0.677	–	–	–	–	–	–	–	–	–
NCI-H596	–	–	–	–	–	0.736	0.81	0.804	0.832	0.874	0.903	1.18	1.08	1.04	1.16	1.35	1.09	1	1

— the supplement of paper PMC10307832
